# Test results published in patent publication US20250093329A1, “SCREENING OF COMPOUNDS” (THE UNIVERSITY OF TULSA, priority 2022, published 2025).
# Columns and labels:
# Format in all cases: cell-based
# [1] = test system: lung cancer cells A549; experiment: Rapid one hour CellTiter-Glo ATP screening (FIGS. 16-18, 21-24); conditions: for effectiveness by POC (FIG. 17): 10-30 μM; for effectiveness by POC (FIG. 24): L15 media
# From the text: (§1) When used to identify compounds for specific patients, the following steps will be carried out: • Individualized patient cells will be acquired from a tumor biopsy and cultured/grown in patient blood serum and/or plasma. (In most instances the cells will be obtained using a needle biopsy; i.e. fine needle aspiration biopsy. Optionally, the cells may be obtained from resected tumor (i.e. excisional biopsy, which is an attempt at complete tumor removal), and/or a core biopsy; (i.e. removal of part of the tumor). Alternatively, cells may be obtained from blood draw samples, which would contain leukemia, lymphoma and myeloma cells.) • The cells (as few as 100 cells per experiment) will be screened directly in patient blood serum and/or plasma in the absence or presence of glycolysis inhibitor, 2-deoxyglucose (2DG) using a rapid (1-2 hr) screening assay (CellTiter-Glo, or “CTG”). • NOTE: while the discussion herein focuses on CTG, other assays suitable for measuring changes in ATP levels will perform equally as well. […] DMEM contains glucose, but L15 has substituted glucose with galactose. This means that in DMEM, 2DG is added to inhibit glycolysis; but in L15, the addition of 2DG is unnecessary to achieve the same result as the lack of glucose in L15 precludes access to the metabolic pathway that would utilize glucose. […] The compounds identified with compound numbers 140-161 as depicted in FIGS. 11 and 12 were tested in this manner. NOTE: compound number 141 is Gramicidin, also known as Gramicidin D. This antibiotic is identified by CAS number 1393-88-0. • The rapid screening assay provides evidence of unexpected drug activity for known drugs against cancer cell lines. Thus, the screening of FDA-approved drugs for synergistic activity with metabolic inhibitors can provide anticancer drugs from drugs currently used for other purposes.
# The data presented in FIGS. 16-33 was developed using compounds 140-161 as depicted in FIGS. 11 and 12. The graphs of FIGS. 16-33 provide a direct comparison of the rapid screening method wherein the tests were carried out over one hour (CTG) using Dulbecco's Modified Eagle Medium (DMEM), […] 2DG and L15 media (described below), a cell media that is missing glucose; the equivalent to DMEM plus 2DG. Compounds 140-161 were screened against lung cancer cells designated A549. Similar results are obtained in most cases, but a few examples show significant enhancement of activity in L15. As used in the discussion below, Rot=rotenone, and 2DG+Rot=a positive control (ATP should be inhibited to a high degree).
# FIG. 16 provides a comparison of DMEM and L15 media at 50-200 μM. After one hour of exposure and assessment of the ATP values using CellTiter-Glo assay, the “percent of control” (POC) value is determined with respect to the DMSO control. As reflected by FIG. 16, the following compounds, at the indicated concentrations, would be considered effective against the cancer cells of line A549: 140, 142, 149, 150, 155, 156, 159, 160, 161. The same compounds were tested at 10-30 μM with the results depicted in FIG. 17. At these concentrations, the following compounds would be considered effective at least one concentration level: 141, 155, 156, 159, 160.
# FIG. 18 provides a comparison of DMEM with 10 mM 2DG with the compounds of interest at concentrations of 50 to 200 μM and 10 to 30 μM to L15 Media with the compounds of interest at concentrations of 50 to 200 μM and 10 to 30 μM. The compounds were tested against the same cancer cell line with one hour of exposure and CTG assay with POC reported against a DMSO control. Under the reported conditions the following compounds would be considered to have effectiveness in treating the cancer cell line at least one concentration level: 140, 141, 149, 155, 156, 159, 160, 161.
# FIGS. 21 and 22 provide test data developed using the rapid testing method described above. […]
# [2] = Rapid one hour CellTiter-Glo ATP screening in L15 (FIG. 26); conditions: MCF10A; L15 media; one hour CTG; at least one concentration level
# [3] = test system: ovarian cancer cell line HeLa; experiment: Rapid one hour CellTiter-Glo ATP screening in L15 (FIG. 28); conditions: for effectiveness by POC (FIG. 28): L15 media, one hour CTG, at least one concentration level
# From the text: [The source words this procedure for another cell line and reports this cell line under the same test.] as §1
# (§2) The data presented in FIGS. 16-33 was developed using compounds 140-161 as depicted in FIGS. 11 and 12. […]
# [4] = test system: breast cancer cell line MCF7; experiment: Rapid one hour CellTiter-Glo ATP screening in L15 (FIG. 29); conditions: for effectiveness by POC (FIG. 29): L15 media, one hour CTG, at least one concentration level
# From the text: [The source words this procedure for another cell line and reports this cell line under the same test.] as §1, §2
# [5] = test system: pancreatic cancer cell line SW-1990; experiment: Rapid one hour CellTiter-Glo ATP screening in L15 (FIG. 30); conditions: for effectiveness by POC (FIG. 30): L15 media, one hour CTG, at least one concentration level
# From the text: [The source words this procedure for another cell line and reports this cell line under the same test.] as §1, §2
# [6] = test system: pancreatic cancer cell line CFPAC-1; experiment: Rapid one hour CellTiter-Glo ATP screening in L15 (FIG. 31)
# From the text: [The source words this procedure for another cell line and reports this cell line under the same test.] (§3) When used to identify compounds for specific patients, the following steps will be carried out: • Individualized patient cells will be acquired from a tumor biopsy and cultured/grown in patient blood serum and/or plasma. (In most instances the cells will be obtained using a needle biopsy; i.e. fine needle aspiration biopsy. Optionally, the cells may be obtained from resected tumor (i.e. excisional biopsy, which is an attempt at complete tumor removal), and/or a core biopsy; (i.e. removal of part of the tumor). Alternatively, cells may be obtained from blood draw samples, which would contain leukemia, lymphoma and myeloma cells.) • The cells (as few as 100 cells per experiment) will be screened directly in patient blood serum and/or plasma in the absence or presence of glycolysis inhibitor, 2-deoxyglucose (2DG) using a rapid (1-2 hr) screening assay (CellTiter-Glo, or “CTG”). • NOTE: while the discussion herein focuses on CTG, other assays suitable for measuring changes in ATP levels will perform equally as well. […] DMEM contains glucose, but L15 has substituted glucose with galactose. This means that in DMEM, 2DG is added to inhibit glycolysis; but in L15, the addition of 2DG is unnecessary to achieve the same result as the lack of glucose in L15 precludes access to the metabolic pathway that would utilize glucose. […]
# [7] = test system: A549, NCI H196 and MCF10A; experiment: Comparison of effectiveness between cell lines (FIG. 27); conditions: 50 μM to 200 μM, L15, one hour CTG
# Protocol: FIG. 27 provides a comparison of the effectiveness of the compounds against A549, NCI H196 and MCF10A at concentrations in the range of 50 μM to 200 μM.
# [8] = test system: MCF7 and MCF10A; experiment: Comparison of cancerous and non-cancerous cells (FIG. 33); conditions: 10 μM to 30 μM
# Protocol: FIG. 33 compares the impact of compounds 140-161 on breast cancer cell line MCF7 and non-cancerous […] cells MCF10A. All compounds tested were in the range of 10 μM to 30 μM.
# [9] = test system: lung cancer cell line NCI H196; experiment: Rapid one hour CellTiter-Glo ATP screening in L15 (FIG. 25); conditions: L15 media, one hour CTG, at least one concentration level
# From the text: [The source words this procedure for another cell line and reports this cell line under the same test.] as §3
# [10] = DMEM and L15 media, one hour, at least one concentration level
# [11] = 1-8 μm, 10-30 μM and 50-200 μM, one hour CTG, at least one concentration level
Compound,effectiveness (FIG. 23) ([1]; 145 μM in L15),"effectiveness by POC (FIG. 17) [1, 10]","effectiveness by POC (FIG. 16) ([1]; DMEM and L15 media, 50-200 μM, one hour, CellTiter-Glo, DMSO control)","effectiveness by POC when combined with 2DG (FIG. 22) ([1]; DMEM with 10 mM 2DG, 1-8 μm, 10-30 μM and 50-200 μM, one hour CTG, at least one concentration level)","effectiveness by POC (FIG. 24) [1, 11]",effectiveness by POC (FIG. 26) [2],"effectiveness against ovarian cancer (FIG. 28) ([3]; 145 μM, L15)",effectiveness by POC (FIG. 28) [3],"effectiveness against breast cancer (FIG. 29) ([4]; 145 μM, L15)",effectiveness by POC (FIG. 29) [4],"effectiveness against pancreatic cancer (FIG. 30) ([5]; 145 μM, L15)",effectiveness by POC (FIG. 30) [5],"effectiveness against pancreatic cancer (FIG. 31) ([6]; 145 μM, L15)","effectiveness by POC (FIG. 31) ([6]; L15 media, one hour CTG, at least one concentration level)",subtype specificity (FIG. 27) [7],impact on cancerous versus non-cancerous cells (FIG. 33) [8],effectiveness by POC (FIG. 25) [9]
"CN(C)CCCOc1nn(Cc2ccccc2)c2ccccc12 [Compound 156, benzydamine]",unexpected effectiveness,effective,effective,effective,likely to be effective,likely effective,effective,likely effective,effective,likely effective,effective,likely effective,effective,likely effective,subtype specificity,significantly more impact on the cancerous cells,
Gramicidin [Compound 141],,effective,,,likely to be effective,likely effective,,likely effective,,likely effective,,likely effective,,,subtype specificity,,likely effective
